Values quoted from earlier work as cited in PubChem BioAssay AID1259409 (Chemical Carcinogenesis Research Information System (CCRIS), 2018).

Tested on: rodent chemically induced tumor inhibition, incidence and multiplicity
Test: CCRIS tumor inhibitor studies
Details: Dose [Inhibitor]: 0, Route [Inhibitor]: ORAL, Species: RAT, Strain/Sex: F344/MALE, Promoter: NONE USED

For `O=C(O)c1ccc(O)c(O)c1`, the “tumour outcome (control, treated, inhibition, significance)” value (Carcinogen: AZOXYMETHANE, 25843-45-2, 1000 PPM IN DIET FOR 28 WK BEGINNING 1 WK POST CARCINOGEN TREATMENT (STUDY DURATION: 32 WK), Target Tissue: Type of Lesion: LARGE INTESTINE: ADENOMA, Dose [Carcinogen]: 15 MG/KG BW 1/WK FOR 3 WK) is listed as 2/20 (10%), 2/23 (9%), 10%, not significant, the “tumour outcome (control, treated, inhibition, significance)” value (Carcinogen: AZOXYMETHANE, 25843-45-2, 1000 PPM IN DIET FOR 28 WK BEGINNING 1 WK POST CARCINOGEN TREATMENT (STUDY DURATION: 32 WK), Target Tissue: Type of Lesion: SMALL INTESTINE: ADENOCARCINOMA, Dose [Carcinogen]: 15 MG/KG BW 1/WK FOR 3 WK) is listed as 6/20 (30%), 2/23 (9%), 70%, not significant and the “tumour outcome (control, treated, inhibition, significance)” value (Carcinogen: AZOXYMETHANE, 25843-45-2, 1000 PPM IN DIET FOR 28 WK BEGINNING 1 WK POST CARCINOGEN TREATMENT (STUDY DURATION: 32 WK), Target Tissue: Type of Lesion: SMALL INTESTINE: ADENOMA, Dose [Carcinogen]: 15 MG/KG BW 1/WK FOR 3 WK) is listed as 1/20 (5%), 1/23 (4%), 20%, not significant. The “tumour outcome (control, treated, inhibition, significance)” value (Carcinogen: DIETHYLNITROSAMINE, 55-18-5, 500 PPM IN DIET BEGINNING 1 WK PRIOR TO CARCINOGEN AND CONTINUING FOR 7 WK FOLLOWED BY BASAL DIET FOR 30 WK (STUDY DU, Target Tissue: Type of Lesion: LIVER: ADENOMA OR CARCINOMA, Dose [Carcinogen]: 40 PPM IN DRINKING WATER FOR 5 WK BEGINNING AT 7 WK OF AGE) was 18/18 (100%), 12/17 (71%), 29%, p=0.02, the “tumour outcome (control, treated, inhibition, significance)” value (Carcinogen: DIETHYLNITROSAMINE, 55-18-5, 500 PPM IN DIET FOR 7 WK BEGINNING 1 WK PRIOR TO CARCINOGEN TREATMENT (STUDY DURATION: 37 WK), Target Tissue: Type of Lesion: LIVER: ADENOMA, Dose [Carcinogen]: 40 PPM IN DRINKING WATER FOR 5 WK) was 89%, 59%, 34%, not significant and the “tumour outcome (control, treated, inhibition, significance)” value (Carcinogen: DIETHYLNITROSAMINE, 55-18-5, 500 PPM IN DIET FOR 7 WK BEGINNING 1 WK PRIOR TO CARCINOGEN TREATMENT (STUDY DURATION: 37 WK), Target Tissue: Type of Lesion: LIVER: CARCINOMA, Dose [Carcinogen]: 40 PPM IN DRINKING WATER FOR 5 WK) was 89%, 71%, 20%, not significant. The “tumour outcome (control, treated, inhibition, significance)” value (Carcinogen: DIETHYLNITROSAMINE, 55-18-5, 500 PPM IN DIET FOR 30 WK BEGINNING 1 WK POST CARCINOGEN TREATMENT (STUDY DURATION: 37 WK), Target Tissue: Type of Lesion: LIVER: ADENOMA, Dose [Carcinogen]: 40 PPM IN DRINKING WATER FOR 5 WK) was 89%, 60%, 33%, p<0.05, the “tumour outcome (control, treated, inhibition, significance)” value (Carcinogen: DIETHYLNITROSAMINE, 55-18-5, 1000 PPM IN DIET FOR 7 WK BEGINNING 1 WK PRIOR TO CARCINOGEN TREATMENT (STUDY DURATION: 37 WK), Target Tissue: Type of Lesion: LIVER: ADENOMA, Dose [Carcinogen]: 40 PPM IN DRINKING WATER FOR 5 WK) was 89%, 37%, 58%, p<0.05 and the “tumour outcome (control, treated, inhibition, significance)” value (Carcinogen: DIETHYLNITROSAMINE, 55-18-5, 1000 PPM IN DIET FOR 30 WK BEGINNING 1 WK POST CARCINOGEN TREATMENT (STUDY DURATION: 37 WK), Target Tissue: Type of Lesion: LIVER: ADENOMA, Dose [Carcinogen]: 40 PPM IN DRINKING WATER FOR 5 WK) was 89%, 68%, 24%, not significant. The “tumour outcome (control, treated, inhibition, significance)” value (Carcinogen: DIETHYLNITROSAMINE, 55-18-5, 1000 PPM IN DIET FOR 30 WK BEGINNING 1 WK POST CARCINOGEN TREATMENT (STUDY DURATION: 37 WK), Target Tissue: Type of Lesion: LIVER: CARCINOMA, Dose [Carcinogen]: 40 PPM IN DRINKING WATER FOR 5 WK) was 89%, 32%, 64%, p<0.05, the “tumour outcome (control, treated, inhibition, significance)” value (Carcinogen: N-BUTYL-N-(4-HYDROXYBUTYL)NITROSAMINE, 3817-11-6, 500 PPM IN DIET FOR 8 WK BEGINNING 1 WK PRIOR TO CARCINOGEN TREATMENT (STUDY DURATION: 41 WK), Target Tissue: Type of Lesion: BLADDER: CARCINOMA, Dose [Carcinogen]: 0.05% IN DRINKING WATER FOR 6 WK) was 17/22 (77%), 13/22 (59%), 23%, not significant and the “tumour outcome (control, treated, inhibition, significance)” value (Carcinogen: N-BUTYL-N-(4-HYDROXYBUTYL)NITROSAMINE, 3817-11-6, 500 PPM IN DIET FOR 8 WK BEGINNING 1 WK PRIOR TO CARCINOGEN TREATMENT (STUDY DURATION: 41 WK), Target Tissue: Type of Lesion: BLADDER: PAPILLOMA, Dose [Carcinogen]: 0.05% IN DRINKING WATER FOR 6 WK) was 1/22 (5%), 3/22 (14%), -180%, not significant. The “tumour outcome (control, treated, inhibition, significance)” value (Carcinogen: N-BUTYL-N-(4-HYDROXYBUTYL)NITROSAMINE, 3817-11-6, 500 PPM IN DIET FOR 33 WK BEGINNING 1 WK POST CARCINOGEN TREATMENT (STUDY DURATION: 41 WK), Target Tissue: Type of Lesion: BLADDER: CARCINOMA, Dose [Carcinogen]: 0.05% IN DRINKING WATER FOR 6 WK) was 17/22 (77%), 13/25 (52%), 32%, not significant, the “tumour outcome (control, treated, inhibition, significance)” value (Carcinogen: N-BUTYL-N-(4-HYDROXYBUTYL)NITROSAMINE, 3817-11-6, 500 PPM IN DIET FOR 33 WK BEGINNING 1 WK POST CARCINOGEN TREATMENT (STUDY DURATION: 41 WK), Target Tissue: Type of Lesion: BLADDER: PAPILLOMA, Dose [Carcinogen]: 0.05% IN DRINKING WATER FOR 6 WK) was 1/22 (5%), 4/25 (16%), -220%, not significant and the “tumour outcome (control, treated, inhibition, significance)” value (Carcinogen: N-BUTYL-N-(4-HYDROXYBUTYL)NITROSAMINE, 3817-11-6, 1000 PPM IN DIET FOR 8 WK BEGINNING 1 WK PRIOR TO CARCINOGEN TREATMENT (STUDY DURATION: 41 WK), Target Tissue: Type of Lesion: BLADDER: CARCINOMA, Dose [Carcinogen]: 0.05% IN DRINKING WATER FOR 6 WK) was 17/22 (77%), 9/22 (41%), 47%, p<0.03. The “tumour outcome (control, treated, inhibition, significance)” value (Carcinogen: N-BUTYL-N-(4-HYDROXYBUTYL)NITROSAMINE, 3817-11-6, 1000 PPM IN DIET FOR 8 WK BEGINNING 1 WK PRIOR TO CARCINOGEN TREATMENT (STUDY DURATION: 41 WK), Target Tissue: Type of Lesion: BLADDER: PAPILLOMA, Dose [Carcinogen]: 0.05% IN DRINKING WATER FOR 6 WK) was 1/22 (5%), 0/22 (0%), 100%, not significant, the “tumour outcome (control, treated, inhibition, significance)” value (Carcinogen: N-BUTYL-N-(4-HYDROXYBUTYL)NITROSAMINE, 3817-11-6, 1000 PPM IN DIET FOR 33 WK BEGINNING 1 WK POST CARCINOGEN TREATMENT (STUDY DURATION: 41 WK), Target Tissue: Type of Lesion: BLADDER: CARCINOMA, Dose [Carcinogen]: 0.05% IN DRINKING WATER FOR 6 WK) was 17/22 (77%), 12/25 (48%), 38%, p<0.05 and the “tumour outcome (control, treated, inhibition, significance)” value (Carcinogen: N-BUTYL-N-(4-HYDROXYBUTYL)NITROSAMINE, 3817-11-6, 1000 PPM IN DIET FOR 33 WK BEGINNING 1 WK POST CARCINOGEN TREATMENT (STUDY DURATION: 41 WK), Target Tissue: Type of Lesion: BLADDER: PAPILLOMA, Dose [Carcinogen]: 0.05% IN DRINKING WATER FOR 6 WK) was 1/22 (5%), 2/25 (8%), -60%, not significant. The “tumour outcome (control, treated, inhibition, significance)” value (Carcinogen: N-BUTYL-N-(4-HYDROXYBUTYL)NITROSAMINE, 3817-11-6, 2000 PPM IN DIET FOR 8 WK BEGINNING 1 WK PRIOR TO CARCINOGEN TREATMENT (STUDY DURATION: 41 WK), Target Tissue: Type of Lesion: BLADDER: CARCINOMA, Dose [Carcinogen]: 0.05% IN DRINKING WATER FOR 6 WK) was 17/22 (77%), 8/25 (32%), 58%, p<0.005 and the “tumour outcome (control, treated, inhibition, significance)” value (Carcinogen: N-BUTYL-N-(4-HYDROXYBUTYL)NITROSAMINE, 3817-11-6, 2000 PPM IN DIET FOR 8 WK BEGINNING 1 WK PRIOR TO CARCINOGEN TREATMENT (STUDY DURATION: 41 WK), Target Tissue: Type of Lesion: BLADDER: PAPILLOMA, Dose [Carcinogen]: 0.05% IN DRINKING WATER FOR 6 WK) was 1/22 (5%), 3/25 (12%), -140%, not significant.
